According to article PMC10763615, “Identification and engineering of potent cyclic peptides with selective or promiscuous binding through biochemical profiling and bioinformatic data analysis” (RSC Chemical Biology, 2023):
Read-outs that look alike come from different tables or passages of the source.

Tests used:
[1] = target: T1, FGFR3c/BKL (Fc-fused human FGF-R3alpha(IIIc) with beta-klotho) (Homo sapiens, UniProt P22607); assay: AlphaScreen FGF21 competitive binding assay
T1 sequence (P22607 23-375 limits assumed): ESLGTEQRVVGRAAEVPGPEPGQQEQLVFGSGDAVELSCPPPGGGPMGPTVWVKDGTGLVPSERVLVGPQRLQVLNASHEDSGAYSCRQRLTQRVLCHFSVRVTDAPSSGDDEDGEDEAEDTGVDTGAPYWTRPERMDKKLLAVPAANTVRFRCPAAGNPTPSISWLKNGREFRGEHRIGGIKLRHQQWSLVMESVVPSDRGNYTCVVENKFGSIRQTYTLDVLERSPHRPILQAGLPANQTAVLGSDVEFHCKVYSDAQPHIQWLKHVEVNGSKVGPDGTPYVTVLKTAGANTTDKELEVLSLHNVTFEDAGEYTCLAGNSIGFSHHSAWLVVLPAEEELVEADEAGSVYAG
Description: Alphascreen binding assay
(§3) The competitive binding assay was carried out according to the methods detailed in Hansen. et al using
(§4) AlphaScreen.3 All reagents and samples were prepared in assay buffer: 40mM Hepes, 140mM NaCl, 1mM
(§5) CaCl2, 0,05% Tween20, pH=7.5, 0.1% BSA. In brief, recombinant human beta-klotho (R&D Systems) was
(§6) preincubated for 60 min with the ectodomain, either Fc-fused human FGF-R1alpha(IIIc), FGF-R3alpha(IIIc)
(§7) or FGF-R4 (R&D Systems), and the mixture was added to the test peptides in OptiPlate™ (PerkinElmer).
(§8) Biotinylated FGF21 and heparin were further added to each well. AlphaScreen bead mix (1:1 mix of Protein
(§9) A acceptor beads/ streptavidin-coated donor beads, PerkinElmer) were added to each well incubated
(§10) overnight at RT in the dark, and measured on a plate reader (Envision). Assays were carried out in triplicates
(§11) with concentrations ranging from 3, 10, 30, 100, 300 ,1000 and 3000 nM of peptide. No peptide control
(§12) (media only) was used as a negative control, and unlabeled FGF21 and FGF1 as positive control.
(§13) competing with biotinylated natural FGF21 ligand.

[2] = target: T2, FGFR1c/KLB (Fc-fused human FGF-R1alpha(IIIc) with beta-klotho) (Homo sapiens, UniProt P11362); assay: AlphaScreen FGF21 competitive binding assay
T2 sequence (P11362 22-376 limits assumed): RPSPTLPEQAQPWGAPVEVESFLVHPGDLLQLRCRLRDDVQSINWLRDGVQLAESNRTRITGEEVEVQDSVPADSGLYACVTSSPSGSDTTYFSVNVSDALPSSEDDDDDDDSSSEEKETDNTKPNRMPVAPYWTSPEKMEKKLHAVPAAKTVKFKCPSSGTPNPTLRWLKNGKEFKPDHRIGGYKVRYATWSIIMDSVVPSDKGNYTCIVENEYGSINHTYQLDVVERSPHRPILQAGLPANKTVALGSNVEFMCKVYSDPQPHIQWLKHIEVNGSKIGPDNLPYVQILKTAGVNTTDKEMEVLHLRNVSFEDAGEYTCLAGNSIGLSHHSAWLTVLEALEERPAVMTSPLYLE
Description: Alphascreen binding assay
as §3, §4, §5, §6, §7, §8, §9, §10, §11, §12, §13

FGF-R3C ECD [3] = target: T3, FGF-R3C ECD (Homo sapiens, UniProt P22607); assay: biochemical; format: binding; set-up: DNA constructs for the extracellular domain (ECD) of human FGF-; HPC4 (C); made in house; host or cells: HEK 293-6E
T3 sequence (P22607 23-375 limits assumed): T1 sequence (P22607 23-375 limits assumed)
Procedure, shortened: (§1)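 Biotinylated FGF-R ECD on streptavidin biosensors was dipped into ~1 μM crude peptide in PBS pH7.4 with 0.05% Tween-20 and 0.01% BSA for association, then into buffer for dissociation, and followed by BLI. Fitted KD values were adjusted for peptide concentration measured by UPLC-CAD.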

FGF-R1C ECD [4] = target: T4, FGF-R1C ECD (Homo sapiens, UniProt P11362); assay: biochemical; format: binding; set-up: DNA constructs for the extracellular domain (ECD) of human FGF-; HPC4 (C); made in house; host or cells: HEK 293-6E
T4 sequence (P11362 22-376 limits assumed): T2 sequence (P11362 22-376 limits assumed)
Procedure, shortened: as §1

[5] = target: T5, FGFR4/KLB (Fc-fused human FGF-R4 with beta-klotho) (Homo sapiens, UniProt P22455); assay: AlphaScreen FGF21 competitive binding assay
T5 sequence (P22455 22-369 limits assumed): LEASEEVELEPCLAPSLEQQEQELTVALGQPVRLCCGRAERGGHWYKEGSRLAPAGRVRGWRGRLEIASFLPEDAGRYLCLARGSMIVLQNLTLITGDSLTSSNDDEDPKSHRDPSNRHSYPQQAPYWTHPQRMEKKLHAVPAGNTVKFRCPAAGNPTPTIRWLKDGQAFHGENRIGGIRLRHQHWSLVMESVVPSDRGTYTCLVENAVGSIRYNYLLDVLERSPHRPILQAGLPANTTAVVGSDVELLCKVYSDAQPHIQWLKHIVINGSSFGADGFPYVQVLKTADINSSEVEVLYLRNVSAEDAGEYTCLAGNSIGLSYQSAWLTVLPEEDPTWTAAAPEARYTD
Description: Alphascreen binding assay
as §3, §4, §5, §6, §7, §8, §9, §10, §11, §12, §13

FGF-R4 ECD [6] = target: T6, FGF-R4 ECD (Homo sapiens, UniProt P22455); assay: multi-concentration BLI of purified peptides; format: binding; settings: purified NNK library peptides
T6 construct: DNA constructs for the extracellular domain (ECD) of human FGF-; HPC4 (C); made in house; host or cells: HEK 293-6E
T6 sequence (P22455 22-369 limits assumed): T5 sequence (P22455 22-369 limits assumed)
Procedure, shortened: (§2)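 Streptavidin biosensors carrying biotinylated FGF receptor ECD were immersed in peptide (~1 μM for crude single-point runs, a concentration series for purified peptides) and then in peptide-free buffer. KD was obtained by fitting the BLI association and dissociation curves.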

FGF-R3C ECD [7] = target: T3, FGF-R3C ECD; assay: biochemical
Procedure, shortened: as §2

FGF-R1C ECD [8] = target: T4, FGF-R1C ECD; assay: biochemical
Procedure, shortened: as §2

FGF-R4 ECD [9] = target: T6, FGF-R4 ECD; assay: single concentration BLI of crude peptides; format: binding; settings: crude NNK peptides, single concentration BLI (Table S3); read-out: KD (4)
Procedure, shortened: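 BLI, streptavidin sensors loaded with biotinylated receptor ECD. Single-point: ~1 μM crude peptide, PBS pH7.4/0.05% Tween-20/0.01% BSA; association then dissociation in buffer. KD corrected for UPLC-CAD-determined concentration.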

Row | Compound | IC50 [1] [nM] | IC50 [2] [nM] | Kd (FGF-R3C ECD [3]) [nM] | Kd (FGF-R1C ECD [4]) [nM] | IC50 [5] [nM] | Kd (FGF-R4 ECD [6]) [nM] | Kd (FGF-R3C ECD [7]) [nM] | Kd (FGF-R1C ECD [8]) [nM] | Kd (FGF-R4 ECD [9]) [nM]
1 | CC[C@H](C)[C@@H]1NC(=O)[C@@H](NC(=O)[C@H](CCSC)NC(C)=O)CSSC[C@@H](C(=O)NCC(=O)N[C@@H](CO)C(=O)NCC(=O)N[C@@H](CO)C(=O)N[C@@H](CC(=O)O)C(=O)N[C@@H](Cc2ccc(O)cc2)C(=O)N[C@@H](CCCCN)C(=O)N[C@@H](CC(=O)O)C(=O)N[C@@H](CC(=O)O)C(=O)N[C@@H](CC(=O)O)C(=O)N[C@@H](CC(=O)O)C(=O)N[C@@H](CCCCN)C(N)=O)NC(=O)[C@H](CCC(=O)O)NC(=O)[C@H](C(C)C)NC(=O)[C@H](Cc2c[nH]c3ccccc23)NC(=O)[C@H](Cc2ccccc2)NC(=O)[C@H](CC(=O)O)NC(=O)[C@H](CO)NC(=O)[C@H](CC(C)C)NC(=O)[C@H](CCCNC(=N)N)NC(=O)[C@H](Cc2ccc(O)cc2)NC1=O [1C.7] | 631 | 473 | 281 | 47 | 406 | > 1000 | > 1000 | > 1000 | 45
2 | CC[C@H](C)[C@@H]1NC(=O)[C@H](C(C)C)NC(=O)[C@H](Cc2c[nH]cn2)NC(=O)[C@@H](NC(=O)[C@H](CCSC)NC(C)=O)CSSC[C@@H](C(=O)NCC(=O)N[C@@H](CO)C(=O)NCC(=O)N[C@@H](CO)C(=O)N[C@@H](CC(=O)O)C(=O)N[C@@H](Cc2ccc(O)cc2)C(=O)N[C@@H](CCCCN)C(=O)N[C@@H](CC(=O)O)C(=O)N[C@@H](CC(=O)O)C(=O)N[C@@H](CC(=O)O)C(=O)N[C@@H](CC(=O)O)C(=O)N[C@@H](CCCCN)C(N)=O)NC(=O)[C@H](Cc2ccc(O)cc2)NC(=O)[C@H](CCCNC(=N)N)NC(=O)[C@H](Cc2c[nH]c3ccccc23)NC(=O)[C@H](CO)NC(=O)[C@H](CCCNC(=N)N)NC(=O)[C@H](Cc2c[nH]c3ccccc23)NC(=O)[C@H](CC(C)C)NC1=O [4.2] | > 1000 | > 1000 | > 10000 | > 10000 | 682 | 51 | > 1000 | > 1000 | 93
3 | CSCC[C@H](N)C(=O)N[C@H]1CSSC[C@@H](C(=O)NCC(=O)N[C@@H](CO)C(=O)NCC(=O)N[C@@H](CO)C(=O)N[C@@H](CC(=O)O)C(=O)N[C@@H](Cc2ccc(O)cc2)C(=O)N[C@@H](CCCCN)C(=O)N[C@@H](CC(=O)O)C(=O)N[C@@H](CC(=O)O)C(=O)N[C@@H](CC(=O)O)C(=O)N[C@@H](CC(=O)O)C(=O)N[C@@H](CCCCN)C(N)=O)NC(=O)[C@H](Cc2ccccc2)NC(=O)[C@@H]2CCCN2C(=O)[C@H]([C@@H](C)O)NC(=O)[C@H](CC(C)C)NC(=O)[C@H](Cc2c[nH]cn2)NC(=O)[C@H](Cc2c[nH]cn2)NC(=O)[C@H](Cc2ccccc2)NC(=O)[C@H](CC(C)C)NC(=O)[C@H](CCCNC(=N)N)NC(=O)[C@H](Cc2c[nH]c3ccccc23)NC(=O)[C@H](CCCNC(=N)N)NC(=O)[C@H](Cc2ccccc2)NC1=O [1C.10] | > 1000 | 84 | > 10000 | 50 | 283 | 73 | > 1000 | 101 | 79
4 | CC[C@H](C)[C@@H]1NC(=O)[C@@H](NC(=O)[C@@H](N)CCSC)CSSC[C@@H](C(=O)NCC(=O)N[C@@H](CO)C(=O)NCC(=O)N[C@@H](CO)C(=O)N[C@@H](CC(=O)O)C(=O)N[C@@H](Cc2ccc(O)cc2)C(=O)N[C@@H](CCCCN)C(=O)N[C@@H](CC(=O)O)C(=O)N[C@@H](CC(=O)O)C(=O)N[C@@H](CC(=O)O)C(=O)N[C@@H](CC(=O)O)C(=O)N[C@@H](CCCCN)C(N)=O)NC(=O)[C@H](CC(C)C)NC(=O)[C@H](Cc2c[nH]c3ccccc23)NC(=O)[C@H](Cc2ccccc2)NC(=O)[C@H](CC(C)C)NC(=O)[C@@H]2CCCN2C(=O)[C@H](CCC(N)=O)NC(=O)[C@H](CCCNC(=N)N)NC(=O)[C@H](C)NC(=O)[C@@H]2CCCN2C(=O)[C@H](Cc2c[nH]c3ccccc23)NC(=O)[C@H](CCCNC(=N)N)NC1=O [1C.9] | 15 | 17 | 112 | 19 | 67 | 82 | 47 | 1 | 82
5 | CSCC[C@H](NC(C)=O)C(=O)N[C@H]1CSSC[C@@H](C(=O)NCC(=O)N[C@@H](CO)C(=O)NCC(=O)N[C@@H](CO)C(=O)N[C@@H](CC(=O)O)C(=O)N[C@@H](Cc2ccc(O)cc2)C(=O)N[C@@H](CCCCN)C(=O)N[C@@H](CC(=O)O)C(=O)N[C@@H](CC(=O)O)C(=O)N[C@@H](CC(=O)O)C(=O)N[C@@H](CC(=O)O)C(=O)N[C@@H](CCCCN)C(N)=O)NC(=O)[C@H](C(C)C)NC(=O)[C@H](CC(C)C)NC(=O)[C@H](CC(C)C)NC(=O)[C@H](Cc2c[nH]c3ccccc23)NC(=O)[C@H](Cc2ccc(O)cc2)NC(=O)[C@H](Cc2ccccc2)NC(=O)[C@H](CC(C)C)NC(=O)[C@H](CCCNC(=N)N)NC(=O)[C@H](CCC(=O)O)NC(=O)[C@@H]2CCCN2C1=O [4.7] | > 1000 | > 1000 | > 10000 | > 10000 | > 1000 | 443 | > 1000 | > 1000 | 68
6 | CSCC[C@H](NC(C)=O)C(=O)N[C@H]1CSSC[C@@H](C(=O)NCC(=O)N[C@@H](CO)C(=O)NCC(=O)N[C@@H](CO)C(=O)N[C@@H](CC(=O)O)C(=O)N[C@@H](Cc2ccc(O)cc2)C(=O)N[C@@H](CCCCN)C(=O)N[C@@H](CC(=O)O)C(=O)N[C@@H](CC(=O)O)C(=O)N[C@@H](CC(=O)O)C(=O)N[C@@H](CC(=O)O)C(=O)N[C@@H](CCCCN)C(N)=O)NC(=O)[C@H](CO)NC(=O)[C@H](CCCNC(=N)N)NC(=O)[C@H](Cc2ccccc2)NC(=O)[C@H](C)NC(=O)[C@H](CC(C)C)NC(=O)[C@H](Cc2ccc(O)cc2)NC(=O)[C@H](Cc2ccc(O)cc2)NC(=O)[C@H](C)NC(=O)[C@H](CC(C)C)NC(=O)[C@H](Cc2c[nH]cn2)NC1=O [4.3] | > 1000 | > 1000 | > 10000 | > 10000 | 508 | 86 | > 1000 | > 1000 | 58
7 | CSCC[C@H](NC(C)=O)C(=O)N[C@H]1CSSC[C@@H](C(=O)NCC(=O)N[C@@H](CO)C(=O)NCC(=O)N[C@@H](CO)C(=O)N[C@@H](CC(=O)O)C(=O)N[C@@H](Cc2ccc(O)cc2)C(=O)N[C@@H](CCCCN)C(=O)N[C@@H](CC(=O)O)C(=O)N[C@@H](CC(=O)O)C(=O)N[C@@H](CC(=O)O)C(=O)N[C@@H](CC(=O)O)C(=O)N[C@@H](CCCCN)C(N)=O)NC(=O)[C@H](CC(C)C)NC(=O)[C@H](Cc2c[nH]c3ccccc23)NC(=O)[C@H](C)NC(=O)[C@H](Cc2ccccc2)NC(=O)[C@H](Cc2ccccc2)NC(=O)[C@H](Cc2c[nH]c3ccccc23)NC(=O)[C@@H]2CCCN2C(=O)[C@H](Cc2c[nH]cn2)NC(=O)[C@H](CCCCN)NC(=O)[C@H](Cc2ccccc2)NC1=O [4.5] | > 1000 | > 1000 | > 10000 | > 10000 | 284 | 233 | > 1000 | > 1000 | 35
